Laboratory results as given in ChEMBL document CHEMBL1148822, “Principal component analysis differentiates the receptor binding profiles of three antipsychotic drug candidates from current antipsychotic drugs” (J Med Chem, 2007).
pKi: −log10 of the molar value. The source made the active and inactive calls. The calls are words filed in the database; no cut-off is given here.

Tests used:
[1] = biological target: 5-hydroxytryptamine receptor 2A (Homo sapiens, UniProt P28223); assay: biochemical; format: cell-based, CHO
Description: Displacement of [3H]ketanserin from human 5HT2A receptor expressed in CHO cells

[2] = biological target: Sodium-dependent serotonin transporter (Homo sapiens, UniProt P31645); assay: biochemical; format: cell-based, HEK293
Description: Displacement of [3H]paraxetine from human 5HT transporter expressed in HEK293 cells

[3] = biological target: T1, Adrenergic receptor alpha-2 (Rattus norvegicus, UniProt P22086+P19328+P22909)
T1 sequence (P22086 whole entry): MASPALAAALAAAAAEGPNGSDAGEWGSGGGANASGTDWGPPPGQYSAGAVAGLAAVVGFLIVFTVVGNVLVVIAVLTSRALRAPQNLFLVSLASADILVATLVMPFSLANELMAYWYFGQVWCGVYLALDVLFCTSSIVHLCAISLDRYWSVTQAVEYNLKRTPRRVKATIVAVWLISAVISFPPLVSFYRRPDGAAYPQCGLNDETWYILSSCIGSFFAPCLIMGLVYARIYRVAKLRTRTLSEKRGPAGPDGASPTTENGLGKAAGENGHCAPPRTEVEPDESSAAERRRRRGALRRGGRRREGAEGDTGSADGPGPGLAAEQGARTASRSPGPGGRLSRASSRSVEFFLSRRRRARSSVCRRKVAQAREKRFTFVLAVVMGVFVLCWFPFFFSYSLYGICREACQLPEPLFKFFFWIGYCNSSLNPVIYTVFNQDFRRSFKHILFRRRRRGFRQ
T1 sequence (P19328 whole entry): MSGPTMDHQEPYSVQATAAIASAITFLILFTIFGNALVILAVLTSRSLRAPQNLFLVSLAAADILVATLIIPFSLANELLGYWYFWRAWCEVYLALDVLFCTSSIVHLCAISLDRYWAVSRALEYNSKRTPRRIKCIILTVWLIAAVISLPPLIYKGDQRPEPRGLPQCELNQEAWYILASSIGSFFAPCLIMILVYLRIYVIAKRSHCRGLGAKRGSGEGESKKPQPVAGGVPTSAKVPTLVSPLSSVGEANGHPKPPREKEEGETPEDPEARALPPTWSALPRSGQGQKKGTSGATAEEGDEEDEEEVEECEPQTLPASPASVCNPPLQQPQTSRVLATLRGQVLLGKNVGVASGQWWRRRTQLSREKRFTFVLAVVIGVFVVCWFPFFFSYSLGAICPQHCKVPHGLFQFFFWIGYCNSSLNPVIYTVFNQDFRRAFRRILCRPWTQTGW
T1 sequence (P22909 whole entry): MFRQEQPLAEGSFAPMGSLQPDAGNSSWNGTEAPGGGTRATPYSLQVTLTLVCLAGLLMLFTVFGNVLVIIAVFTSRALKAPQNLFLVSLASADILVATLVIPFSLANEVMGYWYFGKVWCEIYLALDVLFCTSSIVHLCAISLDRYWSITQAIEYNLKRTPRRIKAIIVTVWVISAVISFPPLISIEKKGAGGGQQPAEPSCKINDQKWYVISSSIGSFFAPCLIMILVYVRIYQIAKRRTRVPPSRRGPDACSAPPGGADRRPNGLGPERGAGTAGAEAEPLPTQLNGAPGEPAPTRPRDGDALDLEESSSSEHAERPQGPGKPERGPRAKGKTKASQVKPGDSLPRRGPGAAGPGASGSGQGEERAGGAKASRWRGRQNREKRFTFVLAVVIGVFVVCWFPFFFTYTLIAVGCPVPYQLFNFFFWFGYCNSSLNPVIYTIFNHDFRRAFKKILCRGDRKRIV
Description: Displacement of [3H]RX 821002 from adrenergic alpha-2 receptor in rat cerebral cortex

D(4) dopamine receptor = biological target: T2, D(4) dopamine receptor (Homo sapiens, UniProt P21917); assay: biochemical
T2 sequence (P21917 whole entry): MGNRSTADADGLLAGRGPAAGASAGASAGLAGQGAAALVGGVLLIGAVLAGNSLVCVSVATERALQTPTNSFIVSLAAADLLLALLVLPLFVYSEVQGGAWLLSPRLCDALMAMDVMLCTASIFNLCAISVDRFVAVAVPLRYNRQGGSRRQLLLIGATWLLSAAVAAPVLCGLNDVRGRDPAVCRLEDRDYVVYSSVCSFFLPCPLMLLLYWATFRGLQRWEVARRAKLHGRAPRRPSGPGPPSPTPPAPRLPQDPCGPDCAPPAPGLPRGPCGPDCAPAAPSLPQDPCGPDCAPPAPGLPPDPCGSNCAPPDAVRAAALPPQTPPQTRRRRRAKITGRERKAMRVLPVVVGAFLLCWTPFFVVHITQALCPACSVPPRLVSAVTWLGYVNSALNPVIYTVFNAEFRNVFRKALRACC
Description: Displacement of [3H]spiperone from human dopamine D4.4 receptor expressed in CHO cells

D(3) dopamine receptor = D(3) dopamine receptor (Homo sapiens, UniProt P35462); assay: biochemical
Description: Displacement of [3H]spiperone from human dopamine D3 receptor expressed in CHO cells

[4] = biological target: T3, 5-hydroxytryptamine receptor 1A (Homo sapiens, UniProt P08908); assay: biochemical
T3 sequence (P08908 whole entry): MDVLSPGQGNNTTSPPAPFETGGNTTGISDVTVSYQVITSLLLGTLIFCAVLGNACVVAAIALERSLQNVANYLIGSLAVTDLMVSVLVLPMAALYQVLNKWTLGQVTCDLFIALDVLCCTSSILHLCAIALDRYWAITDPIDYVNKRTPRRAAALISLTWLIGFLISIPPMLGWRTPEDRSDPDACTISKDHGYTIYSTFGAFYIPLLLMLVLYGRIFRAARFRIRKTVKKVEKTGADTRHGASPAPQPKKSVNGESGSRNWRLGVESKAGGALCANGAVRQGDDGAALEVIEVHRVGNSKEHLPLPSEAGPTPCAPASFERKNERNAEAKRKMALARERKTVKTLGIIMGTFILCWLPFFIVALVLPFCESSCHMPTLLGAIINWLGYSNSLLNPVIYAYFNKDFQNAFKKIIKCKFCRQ
Description: Displacement of [3H]8-OH-DPAT from human 5HT1A receptor expressed in CHO cells

[5] = biological target: T4, 5-hydroxytryptamine receptor 2B (Homo sapiens, UniProt P41595); assay: biochemical
Description: (§1) Displacement of [3H]LSD from 5HT2B receptor expressed in CHO cells

[6] = biological target: T5, 5-hydroxytryptamine receptor 2C (Homo sapiens, UniProt P28335); assay: biochemical
T5 sequence (P28335 whole entry): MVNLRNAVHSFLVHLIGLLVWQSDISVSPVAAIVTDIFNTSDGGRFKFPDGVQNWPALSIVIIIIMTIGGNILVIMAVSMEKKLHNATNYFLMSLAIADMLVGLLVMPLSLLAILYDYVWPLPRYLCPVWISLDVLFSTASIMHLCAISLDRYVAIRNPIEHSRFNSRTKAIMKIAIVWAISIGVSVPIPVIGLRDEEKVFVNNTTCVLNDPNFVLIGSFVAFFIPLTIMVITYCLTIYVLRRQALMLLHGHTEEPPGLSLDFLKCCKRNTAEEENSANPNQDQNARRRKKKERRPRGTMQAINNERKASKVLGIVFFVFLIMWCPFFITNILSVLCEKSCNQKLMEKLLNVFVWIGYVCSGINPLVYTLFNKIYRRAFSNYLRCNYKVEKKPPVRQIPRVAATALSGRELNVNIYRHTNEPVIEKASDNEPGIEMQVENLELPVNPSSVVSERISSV
Description: (§2) Displacement of [3H]mesulergine from 5HT2C receptor expressed in CHO cells

[7] = biological target: T6, 5-hydroxytryptamine receptor 6 (Homo sapiens, UniProt P50406); assay: biochemical
Description: (§3) Displacement of [3H]LSD from human 5HT6 receptor expressed in HEK293 cells

[8] = biological target: 5-hydroxytryptamine receptor 7 (Homo sapiens, UniProt P34969); assay: biochemical
Description: Displacement of [3H]LSD from human 5HT7 receptor expressed in CHO cells

Histamine H1 receptor = Histamine H1 receptor (Cavia porcellus, UniProt P31389); assay: biochemical
Description: (§4) Displacement of [3H]pyrilamine from histaminergic H1 receptor guinea pig cerebellum

[9] = biological target: Serotonin 3 (5-HT3) receptor; conditions: hek293
Description: Displacement of [3H]BLR-43694 from human 5HT3 receptor expressed in HEK293 cells

[10] = biological target: T6, 5-hydroxytryptamine receptor 6; conditions: HEK293
Description: as §3

[11] = biological target: T7, Adrenergic receptor alpha-1 (Rattus norvegicus, UniProt P15823+P23944+P43140)
T7 sequence (P15823 whole entry): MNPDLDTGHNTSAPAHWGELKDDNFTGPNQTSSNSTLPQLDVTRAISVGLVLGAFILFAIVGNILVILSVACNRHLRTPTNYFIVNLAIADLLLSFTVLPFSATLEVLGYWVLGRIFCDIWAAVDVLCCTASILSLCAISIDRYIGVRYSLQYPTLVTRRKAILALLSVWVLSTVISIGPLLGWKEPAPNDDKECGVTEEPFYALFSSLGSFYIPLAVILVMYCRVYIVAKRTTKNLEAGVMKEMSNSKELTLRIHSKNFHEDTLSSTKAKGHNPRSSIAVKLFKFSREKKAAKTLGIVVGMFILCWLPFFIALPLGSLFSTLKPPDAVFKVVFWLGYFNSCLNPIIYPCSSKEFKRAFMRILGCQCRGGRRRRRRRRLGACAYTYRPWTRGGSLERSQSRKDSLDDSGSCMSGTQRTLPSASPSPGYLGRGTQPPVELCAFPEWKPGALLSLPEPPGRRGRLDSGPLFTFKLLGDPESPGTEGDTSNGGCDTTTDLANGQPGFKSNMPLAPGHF
T7 sequence (P23944 whole entry): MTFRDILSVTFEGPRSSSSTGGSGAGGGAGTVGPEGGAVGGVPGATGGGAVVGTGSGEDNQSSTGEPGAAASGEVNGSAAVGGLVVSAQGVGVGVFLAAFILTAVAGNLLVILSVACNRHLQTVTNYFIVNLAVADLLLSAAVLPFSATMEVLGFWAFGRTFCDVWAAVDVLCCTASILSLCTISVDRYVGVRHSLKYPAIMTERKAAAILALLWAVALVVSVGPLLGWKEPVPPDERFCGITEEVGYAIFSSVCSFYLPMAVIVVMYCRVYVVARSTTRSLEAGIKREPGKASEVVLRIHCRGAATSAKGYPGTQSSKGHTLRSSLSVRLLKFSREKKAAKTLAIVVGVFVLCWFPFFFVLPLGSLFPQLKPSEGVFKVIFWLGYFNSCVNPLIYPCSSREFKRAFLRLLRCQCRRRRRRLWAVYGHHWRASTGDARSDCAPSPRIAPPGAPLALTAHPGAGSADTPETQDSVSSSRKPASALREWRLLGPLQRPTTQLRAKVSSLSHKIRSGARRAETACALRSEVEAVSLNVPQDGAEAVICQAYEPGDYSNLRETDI
T7 sequence (P43140 whole entry): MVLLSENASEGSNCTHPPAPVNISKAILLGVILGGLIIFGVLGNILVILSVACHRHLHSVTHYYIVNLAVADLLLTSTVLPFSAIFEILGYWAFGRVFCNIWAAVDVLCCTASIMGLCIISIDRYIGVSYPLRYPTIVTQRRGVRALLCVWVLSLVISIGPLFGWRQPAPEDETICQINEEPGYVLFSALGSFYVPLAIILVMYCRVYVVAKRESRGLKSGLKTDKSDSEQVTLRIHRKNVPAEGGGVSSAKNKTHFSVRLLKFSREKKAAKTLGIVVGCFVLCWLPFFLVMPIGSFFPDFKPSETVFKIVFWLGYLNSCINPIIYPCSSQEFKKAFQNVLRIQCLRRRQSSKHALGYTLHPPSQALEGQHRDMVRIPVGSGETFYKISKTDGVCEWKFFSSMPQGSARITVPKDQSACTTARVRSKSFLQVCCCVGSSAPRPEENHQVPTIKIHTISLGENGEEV
Description: Displacement of [3H]prazosin from adrenergic alpha1 receptor in rat cerebral cortex

[12] = biological target: T8, 5-hydroxytryptamine receptor 2C (Homo sapiens) (UniProt P28335); conditions: CHO
T8 sequence (whole entry): T5 sequence (P28335 whole entry)
Description: as §2

[13] = biological target: Histamine H1 receptor (Cavia porcellus) (UniProt P31389); conditions: Cerebellum
Description: as §4

[14] = biological target: T4, 5-hydroxytryptamine receptor 2B; conditions: CHO
Description: as §1

Sequence of 5-hydroxytryptamine receptor 7 (P34969 whole entry): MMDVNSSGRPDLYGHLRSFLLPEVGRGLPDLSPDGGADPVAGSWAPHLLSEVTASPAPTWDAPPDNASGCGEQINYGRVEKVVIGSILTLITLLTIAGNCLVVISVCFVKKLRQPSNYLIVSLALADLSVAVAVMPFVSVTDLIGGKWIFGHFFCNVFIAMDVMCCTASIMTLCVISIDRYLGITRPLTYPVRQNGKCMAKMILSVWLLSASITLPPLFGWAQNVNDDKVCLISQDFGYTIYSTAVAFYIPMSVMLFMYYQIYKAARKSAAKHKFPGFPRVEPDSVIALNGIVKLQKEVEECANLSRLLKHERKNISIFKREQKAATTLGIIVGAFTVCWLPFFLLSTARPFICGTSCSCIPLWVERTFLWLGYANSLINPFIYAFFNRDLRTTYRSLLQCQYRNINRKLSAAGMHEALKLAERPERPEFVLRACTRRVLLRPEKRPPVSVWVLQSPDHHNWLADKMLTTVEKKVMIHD
T4 sequence (P41595 whole entry): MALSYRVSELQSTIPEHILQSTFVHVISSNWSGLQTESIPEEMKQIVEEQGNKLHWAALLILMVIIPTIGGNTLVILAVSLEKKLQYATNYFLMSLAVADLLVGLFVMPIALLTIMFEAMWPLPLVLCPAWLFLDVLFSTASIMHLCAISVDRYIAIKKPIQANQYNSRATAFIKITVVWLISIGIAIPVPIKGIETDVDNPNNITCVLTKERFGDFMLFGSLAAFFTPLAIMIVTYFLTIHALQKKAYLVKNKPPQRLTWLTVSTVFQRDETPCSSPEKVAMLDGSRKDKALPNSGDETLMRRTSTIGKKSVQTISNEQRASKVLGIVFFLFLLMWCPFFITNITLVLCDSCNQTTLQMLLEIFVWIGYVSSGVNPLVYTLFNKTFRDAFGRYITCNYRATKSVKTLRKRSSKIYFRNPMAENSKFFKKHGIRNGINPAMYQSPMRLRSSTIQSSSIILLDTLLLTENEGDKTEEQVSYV
T6 sequence (P50406 whole entry): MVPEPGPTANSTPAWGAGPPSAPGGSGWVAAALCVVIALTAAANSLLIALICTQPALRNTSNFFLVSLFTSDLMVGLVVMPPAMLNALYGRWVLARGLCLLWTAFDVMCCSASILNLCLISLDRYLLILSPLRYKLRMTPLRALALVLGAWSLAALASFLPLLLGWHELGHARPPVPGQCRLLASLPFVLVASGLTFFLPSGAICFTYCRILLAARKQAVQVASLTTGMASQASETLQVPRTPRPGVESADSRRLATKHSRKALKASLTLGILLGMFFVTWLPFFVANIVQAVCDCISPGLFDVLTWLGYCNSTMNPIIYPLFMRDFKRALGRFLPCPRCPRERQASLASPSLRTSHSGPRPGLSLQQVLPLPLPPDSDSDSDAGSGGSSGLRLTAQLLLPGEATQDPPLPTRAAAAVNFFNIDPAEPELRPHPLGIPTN
Sequence of Histamine H1 receptor (P31389 whole entry): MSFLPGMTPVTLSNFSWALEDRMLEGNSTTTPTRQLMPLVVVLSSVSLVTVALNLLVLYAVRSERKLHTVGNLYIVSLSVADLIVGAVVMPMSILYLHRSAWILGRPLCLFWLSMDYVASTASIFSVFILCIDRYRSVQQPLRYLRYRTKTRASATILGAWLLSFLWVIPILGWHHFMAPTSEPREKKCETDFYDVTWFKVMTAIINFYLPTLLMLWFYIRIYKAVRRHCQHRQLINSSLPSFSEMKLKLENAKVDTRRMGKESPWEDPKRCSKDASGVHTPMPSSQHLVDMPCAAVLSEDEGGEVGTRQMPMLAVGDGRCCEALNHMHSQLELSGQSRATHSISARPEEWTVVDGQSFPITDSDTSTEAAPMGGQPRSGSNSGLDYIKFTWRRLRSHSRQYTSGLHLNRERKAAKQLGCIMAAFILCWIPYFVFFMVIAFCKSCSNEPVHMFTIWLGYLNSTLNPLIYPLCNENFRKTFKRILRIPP
Sequence of D(3) dopamine receptor (P35462 whole entry): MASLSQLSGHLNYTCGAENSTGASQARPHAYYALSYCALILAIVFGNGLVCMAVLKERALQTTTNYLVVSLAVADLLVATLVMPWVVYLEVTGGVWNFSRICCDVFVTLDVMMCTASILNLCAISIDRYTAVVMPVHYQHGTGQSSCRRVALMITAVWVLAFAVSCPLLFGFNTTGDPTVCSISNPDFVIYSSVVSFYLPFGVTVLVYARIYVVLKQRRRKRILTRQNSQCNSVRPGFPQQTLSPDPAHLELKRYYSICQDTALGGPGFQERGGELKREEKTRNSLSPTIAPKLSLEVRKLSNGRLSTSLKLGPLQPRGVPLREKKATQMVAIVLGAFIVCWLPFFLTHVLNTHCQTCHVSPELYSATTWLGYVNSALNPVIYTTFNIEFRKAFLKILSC
Sequence of Sodium-dependent serotonin transporter (P31645 whole entry): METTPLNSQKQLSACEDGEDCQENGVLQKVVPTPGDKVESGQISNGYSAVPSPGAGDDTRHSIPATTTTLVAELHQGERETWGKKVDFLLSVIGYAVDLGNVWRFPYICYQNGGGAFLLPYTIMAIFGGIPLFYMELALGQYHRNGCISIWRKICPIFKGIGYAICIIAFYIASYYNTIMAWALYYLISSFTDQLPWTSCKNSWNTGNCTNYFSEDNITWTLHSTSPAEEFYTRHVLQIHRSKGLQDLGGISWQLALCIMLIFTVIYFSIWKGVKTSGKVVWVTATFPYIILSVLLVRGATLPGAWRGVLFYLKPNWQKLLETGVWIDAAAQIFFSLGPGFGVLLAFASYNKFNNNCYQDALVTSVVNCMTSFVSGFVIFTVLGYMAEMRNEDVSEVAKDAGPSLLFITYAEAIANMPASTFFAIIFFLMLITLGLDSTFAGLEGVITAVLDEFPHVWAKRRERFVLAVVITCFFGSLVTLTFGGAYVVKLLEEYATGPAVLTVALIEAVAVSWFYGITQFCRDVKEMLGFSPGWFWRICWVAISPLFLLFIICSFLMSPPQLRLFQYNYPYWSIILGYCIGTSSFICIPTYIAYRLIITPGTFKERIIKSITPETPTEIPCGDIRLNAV
Sequence of Histamine H1 receptor (Cavia porcellus) (P31389 whole entry): as the sequence (P31389 whole entry) above
Sequence of 5-hydroxytryptamine receptor 2A (P28223 whole entry): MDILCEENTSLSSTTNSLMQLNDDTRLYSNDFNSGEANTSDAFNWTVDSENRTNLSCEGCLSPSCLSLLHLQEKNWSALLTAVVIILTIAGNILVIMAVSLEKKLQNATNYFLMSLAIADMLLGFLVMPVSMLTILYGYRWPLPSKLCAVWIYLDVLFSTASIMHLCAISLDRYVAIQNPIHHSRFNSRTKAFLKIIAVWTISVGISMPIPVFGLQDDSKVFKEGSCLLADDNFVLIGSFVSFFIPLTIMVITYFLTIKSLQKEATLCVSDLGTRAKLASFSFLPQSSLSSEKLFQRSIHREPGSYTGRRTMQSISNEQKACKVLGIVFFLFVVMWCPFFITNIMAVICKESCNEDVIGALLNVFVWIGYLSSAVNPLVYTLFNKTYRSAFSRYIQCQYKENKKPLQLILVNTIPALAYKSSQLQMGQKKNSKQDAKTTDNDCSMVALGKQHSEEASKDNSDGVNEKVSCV

O=C1c2ccccc2C(=O)N1CCCCN1CC=C(c2c[nH]c3ccc(F)cc23)CC1
pKi [1]: 7.00
pKi [2]: 9.10
Log Ki [3]: -6.6
pKi (D(4) dopamine receptor): 7.10
pKi (D(3) dopamine receptor): 9.10
pKi [4]: 8.60
pKi [5]: 8.80
pKi [6]: 7.40
pKi [7]: 6.40
pKi [8]: 7.00
pKi (Histamine H1 receptor): 7.50

Cc1cc2c(s1)Nc1ccccc1N=C2N1CCN(C)CC1 [OLANZAPINE]
Log Ki [9]: -6.7

Cc1nc2n(c(=O)c1CCN1CCC(c3noc4cc(F)ccc34)CC1)CCCC2
Activity [10]: inactive

Fc1ccc(-c2cncc(CN3CCN(c4cccc5c4OCCO5)CC3)c2)cc1 [ADOPRAZINE]
Log Ki [11]: -6.3
pKi [5]: 7.90
Activity [12]: inactive
Activity [10]: inactive
Activity [13]: inactive

C[C@H]1Oc2c(cccc2N2CCN(CCCc3c[nH]c4ccc(F)cc34)CC2)NC1=O
pKi [1]: 7.70
pKi [2]: 9.60
Log Ki [11]: -7.8
pKi (D(4) dopamine receptor): 8.80
pKi (D(3) dopamine receptor): 9.30
pKi [4]: 8.30
pKi [5]: 9.00
pKi [6]: 6.70
pKi [8]: 8.10
pKi (Histamine H1 receptor): 6.90
Activity [10]: inactive

CCN1CCCC1CNC(=O)c1cc(S(=O)(=O)CC)c(N)cc1OC (stereo not given) [AMISULPRIDE]
Log Ki [3]: -6.9
Activity [12]: inactive
Activity [10]: inactive
Activity [13]: inactive

O=C1Cc2cc(CCN3CCN(c4nsc5ccccc45)CC3)c(Cl)cc2N1 [ZIPRASIDONE]
Log Ki [9]: -6.4
Log Ki [11]: -8.1
pKi [4]: 8.80
pKi [5]: 8.80
pKi [7]: 7.20
pKi [8]: 8.30
pKi (Histamine H1 receptor): 7.80

OCCOCCN1CCN(C2=Nc3ccccc3Sc3ccccc32)CC1 [QUETIAPINE]
Activity [12]: inactive
Activity [10]: inactive

O=C(CCCN1CCC(O)(c2ccc(Cl)cc2)CC1)c1ccc(F)cc1
Activity [14]: inactive
Activity [12]: inactive
Activity [10]: inactive
